Holding throughout (assay type): cell-based
One data set concerns Molt 3. Put plainly: Cytotoxicity MTS, leukemias/lymphomas, Molt 3. Conditions: 4-Parameter Curve Fit, NA = not active, read-out: Cytotoxicity IC50 ALL (Acute lymphobalstic) Molt 3.
The next data set has as its system MC116. Put plainly: Cytotoxicity MTS, leukemias/lymphomas, MC116. Conditions: 4-Parameter Curve Fit, NA = not active, read-out: Cytotoxicity IC50 Lymphoma (undifferentiated) MC116.
A further data set deals with Hut 78. The data set can be described thus: Cytotoxicity MTS, leukemias/lymphomas, Hut 78. Conditions: 4-Parameter Curve Fit, NA = not active, read-out: Cytotoxicity IC50 Lymphoma (Cutaneous T cell) Hut 78.
A further data set has as its system U-937. Put plainly: Cytotoxicity MTS, leukemias/lymphomas, U-937. Conditions: 4-Parameter Curve Fit, NA = not active, read-out: Cytotoxicity IC50 Lymphoma (Histiocytic) U-937.
For another data set, the system named is HL-60. The data set can be described thus: Cytotoxicity MTS, leukemias/lymphomas, HL-60. Conditions: read-out: Cytotoxicity IC50 AML (acute promyelocytic leukemia) HL-60, 4-Parameter Curve Fit, NA = not active, read-out: Cytotoxicity IC50 ALL (Promyelocytic leukemia) HL-60.
A further data set deals with H9. Put plainly: Cytotoxicity MTS, leukemias/lymphomas, H9. The conditions noted are these: 4-Parameter Curve Fit, NA = not active, read-out: Cytotoxicity IC50 Lymphoma (T cell) H9.
The test system of a further data set is RAMOS. Put plainly: Cytotoxicity MTS, leukemias/lymphomas, RAMOS. Conditions: 4-Parameter Curve Fit, NA = not active, read-out: Cytotoxicity IC50 Lymphoma (Burkitts B cell) RAMOS.
The test system of a further data set is SK-HEP-1. The data set can be described thus: Cytotoxicity MTS, solid tumors, Liver SK-HEP-1. Conditions: 4-Parameter Curve Fit, NA = not active.
The subject of a further data set is CHSA. The data set can be described thus: Cytotoxicity MTS, solid tumors, Chondrosarcoma CHSA. The conditions noted are these: 4-Parameter Curve Fit, NA = not active.
Another data set concerns Hs746t. Put plainly: Cytotoxicity MTS, solid tumors, Gastric Hs746t. Conditions: 4-Parameter Curve Fit, NA = not active.
In the next data set the test system is 786-O. Put plainly: Cytotoxicity MTS, solid tumors, Renal 786-O. The conditions noted are these: 4-Parameter Curve Fit, NA = not active.
Another data set relates to MX-1. The data set can be described thus: Cytotoxicity MTS, solid tumors, Breast MX-1. The conditions noted are these: 4-Parameter Curve Fit, NA = not active.
For the next data set, the system named is 5637. Put plainly: Cytotoxicity MTS, solid tumors, Bladder 5637. Conditions: 4-Parameter Curve Fit, NA = not active.
The next data set deals with DU-145. Put plainly: Cytotoxicity MTS, solid tumors, Prostate DU-145. The conditions noted are these: 4-Parameter Curve Fit, NA = not active.
In a further data set the test system is Y-79. Put plainly: Cytotoxicity MTS, solid tumors, Retinoblastoma Y-79. Conditions: 4-Parameter Curve Fit, NA = not active.
For another data set, the system named is Mel-28. Put plainly: Cytotoxicity MTS, solid tumors, Melanoma Mel-28. Conditions: 4-Parameter Curve Fit, NA = not active.
The subject of another data set is FADU. Put plainly: Cytotoxicity MTS, solid tumors, Pharynx FADU. Conditions: 4-Parameter Curve Fit, NA = not active.
A further data set concerns PC-3. Put plainly: Cytotoxicity MTS, solid tumors, Prostate PC-3. The conditions noted are these: 4-Parameter Curve Fit, NA = not active.
In a further data set the test system is HT-29. Put plainly: Cytotoxicity MTS, solid tumors, Colon HT-29. Conditions: 4-Parameter Curve Fit, NA = not active.
In the next data set the test system is SK-OV-3. Put plainly: Cytotoxicity MTS, solid tumors, Ovary SK-OV-3. Conditions: 4-Parameter Curve Fit, NA = not active.
The test system of a further data set is A549. Put plainly: Cytotoxicity MTS, solid tumors, NSCL A549. The conditions noted are these: 4-Parameter Curve Fit, NA = not active.
In another data set the test system is K562. Put plainly: Cytotoxicity MTS, leukemias/lymphomas, K562. Conditions: 4-Parameter Curve Fit, NA = not active, read-out: Cytotoxicity IC50 CML (Chronic myelogenous) K562.
A further data set deals with ARH-77. Put plainly: Cytotoxicity MTS, leukemias/lymphomas, ARH-77. The conditions noted are these: 4-Parameter Curve Fit, NA = not active, read-out: Cytotoxicity IC50 Leukemia (Plasma cell) ARH-77.
Another data set relates to P3HR1. The data set can be described thus: Cytotoxicity MTS, leukemias/lymphomas, P3HR1. Conditions: 4-Parameter Curve Fit, NA = not active, read-out: Cytotoxicity IC50 Lymphoma (Burkitts ascites) P3HR1.

In general, IC50 refers to the concentration needed to halve the response being measured.

As for `CCCCCCCCCCCCCCC(O)C(C)N` (centres unmarked) [drawing 126], the IC50 worked out at 0.00983 µM in the data set on Molt 3, 9.58 µM with MC116 and 8.81 µM in the data set with Hut 78.

As to `CCCCCCCCCCCCCCCCC(O)C(C)N` (centres unmarked), the IC50 amounted to 1.12 µM in the data set on Molt 3, 8.82 µM in the data set with MC116, 10.6 µM in the data set with Hut 78 and 0.0298 µM in the data set on U-937.

For `CCCCCCCCCCCCCCC[C@@H](O)[C@@H](N)CF` [drawing 133], the IC50 in the data set with HL-60 was determined as 1.29 µM.

For `CCCCCCCCCCCCCCCC(=O)C(N)CC` (centres unmarked), the IC50 in the data set with Molt 3 is 0.581 µM; in the data set with H9 it was 5.98 µM; in the data set on RAMOS it was 1.21 µM.

Take `CCCCCCCCCCCCCCCCCC(=O)[C@H](C)N` [drawing 131]: the IC50 in the data set on Molt 3 was determined as 14.3 µM; with H9, 2.59 µM; in the data set on RAMOS, 1.65 µM.

For `CCCCCCCCCCCCCCC[C@@H](O)[C@@H](N)CF` [drawing 122], the IC50 in the data set with SK-HEP-1 was 15.5 µM; in the data set with CHSA, 4.62 µM; in the data set on Hs746t, 16.2 µM; in the data set on 786-O it was 3.3 µM; in the data set with MX-1 it was 4.29 µM; in the data set with 5637, 1.45 µM. For the same molecule, the IC50 in the data set with DU-145 turned out to be 0.0495 µM; in the data set with Y-79, 1.65 µM; in the data set on Mel-28 it was 2.54 µM; with FADU, 3.96 µM; with PC-3 it was 21.8 µM.

As for `CCCCCCCCCCCCCCC[C@@H](O)[C@H](C)N` [drawing 112], the IC50 came to 0.297 µM with SK-HEP-1; 0.395 µM in the data set with Hs746t; 0.128 µM in the data set with HT-29; 0.138 µM with 786-O; 1.95 µM in the data set on MX-1; 0.702 µM with SK-OV-3. Further, the IC50 amounted to 0.249 µM with FADU and 0.0857 µM in the data set on A549.

`CCCCCCCCCCCCCCCC(O)C(C)N` (centres unmarked): the IC50 came out at 0.784 µM with K562; 0.682 µM in the data set on ARH-77; 3.37 µM in the data set with P3HR1; 0.425 µM in the data set with HL-60; 1.55 µM in the data set with H9; 2.16 µM with Hut 78. Further, the IC50 in the data set on RAMOS came out at 2.14 µM; with U-937, 0.981 µM.
